The text below walks through data of US20200339604A1, “PYRAZOLOPYRIMIDINE COMPOUNDS AS JAK INHIBITORS” (Genentech, Inc., priority 2018, published 2020).

The target of experiment [1] is T1, isolated recombinant JAK1 kinase domain (Homo sapiens, UniProt P23458).
T1 construct: isolated recombinant JAK1 and JAK2 kinase domain
Briefly: JAK enzyme assay, JAK1 kinase domain (Caliper LabChip). The format is biochemical. As to conditions: 1.5 nM JAK1, ATP 25 μM, Morrison tight binding model. The procedure:
(§1) JAK Enzyme Assays were Carried Out as Follows:
(§2) The activity of the isolated recombinant JAK1 and JAK2 kinase domain was measured by monitoring phosphorylation of a peptide derived from JAK3 ([…] fluorescently labeled on the N-terminus with 5-carboxyfluorescein) using the Caliper LabChip® technology (Caliper Life Sciences, Hopkinton, Mass.). To determine inhibition constants (K), compounds were diluted serially in DMSO and added to 50 μL kinase reactions containing purified enzyme (1.5 nM JAK1, or 0.2 nM JAK2), 100 mM HEPES buffer (pH 7.2), 0.015% Brij-35, 1.5 μM peptide substrate, ATP (25 μM), 10 mM MgCl2, 4 mM DTT at a final DMSO concentration of 2%.
(§3) Reactions were incubated at 22° C. in 384-well polypropylene microtiter plates for 30 minutes and then stopped by addition of 25 µL of an EDTA containing solution (100 mM HEPES buffer (pH 7.2), 0.015% Brij-35, 150 mM EDTA), resulting in a final EDTA concentration of 50 mM. After termination of the kinase reaction, the proportion of phosphorylated product was determined as a fraction of total peptide substrate using the Caliper LabChip® 3000 according to the manufacturer's specifications. K values were then determined using the Morrison tight binding model (Morrison, J. F., Biochim. Biophys. Acta. 185:269-296 (1969); William, J. W. and Morrison, J. F., Meth. Enzymol., 63:437-467 (1979)) modified for ATP-competitive inhibition [Ki=Ki, app/(1+[ATP]/Km,app)].

In experiment [2] the target is T2, isolated recombinant JAK2 kinase domain (Homo sapiens, UniProt O60674).
T2 construct: isolated recombinant JAK1 and JAK2 kinase domain
T2 sequence (O60674 849-1124 limits assumed): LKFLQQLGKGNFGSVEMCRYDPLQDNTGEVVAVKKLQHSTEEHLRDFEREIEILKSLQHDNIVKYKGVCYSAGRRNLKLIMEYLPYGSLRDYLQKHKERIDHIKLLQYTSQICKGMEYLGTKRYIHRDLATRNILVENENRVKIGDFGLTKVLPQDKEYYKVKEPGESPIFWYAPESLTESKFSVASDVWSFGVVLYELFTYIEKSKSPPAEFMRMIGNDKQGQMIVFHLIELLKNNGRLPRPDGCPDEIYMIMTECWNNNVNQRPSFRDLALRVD
Briefly: JAK enzyme assay, JAK2 kinase domain (Caliper LabChip). The format is biochemical. As to conditions: 0.2 nM JAK2, ATP 25 μM, Morrison tight binding model. The procedure: as §1, §2, §3

Experiment [3] deals with JAK1-dependent STAT6 phosphorylation downstream of IL-13 stimulation, BEAS-2B human bronchial epithelial cells. Kind of experiment: JAK1 pathway assay in cell lines: IL-13 stimulated STAT6 phosphorylation in BEAS-2B cells (MSD). It counts as cell-based. To be noted: IL-13 stimulation 15 min at EC90, read-out: IL-13 p-STAT6 BEAS-2B IC50. The method, then:
JAK1 Pathway Assay in Cell Lines was Carried Out as Follows:
Inhibitor potency (EC50) was determined in cell-based assays designed to measure JAK1 dependent STAT phosphorylation. As noted above, inhibition of IL-4, IL-13, and IL-9 signaling by blocking the Jak/Stat signaling pathway can alleviate asthmatic symptoms in pre-clinical lung inflammation models (Mathew et al., 2001, J Exp Med 193(9): 1087-1096; Kudlacz et. al., 2008, Eur J. Pharmacol 582(1-3): 154-161).
In one assay approach, TF-1 human erythroleukemia cells obtained from the American Type Culture Collection (ATCC; Manassas, Va.) were used to measure JAK1-dependent STAT6 phosphorylation downstream of IL-13 stimulation. Prior to use in the assays, TF-1 cells were starved of GM-CSF overnight in OptiMEM medium (Life Technologies, Grand Island, N.Y.) supplemented with 0.5% charcoal/dextran stripped fetal bovine serum (FBS), 0.1 mM non-essential amino acids (NEAA), and 1 mM sodium pyruvate. The assays were run in 384-well plates in serum-free OptiMEM medium using 300,000 cells per well. In a second assay approach, BEAS-2B human bronchial epithelial cells obtained from ATCC were plated at 100,000 cells per well of a 96-well plate one day prior to the experiment. The BEAS-2B assay was run in complete growth medium (bronchial epithelial basal medium plus bulletkit; Lonza; Basel, Switzerland).
Test compounds were serially diluted 1:2 in DMSO and then diluted 1:50 in medium just before use. Diluted compounds were added to the cells, for a final DMSO concentration of […], and incubated for 30 m (for the TF-1 assay) or […] (for the BEAS-2B assay) at 37° C. Then, cells were stimulated with human recombinant cytokine at their respective EC90 concentrations, as previously determined for each individual lot. Cells were stimulated with IL-13 (R&D Systems, Minneapolis, Minn.) for 15 min at 37° C. The TF-1 cell reactions were stopped by the direct addition of 10× lysis buffer (Cell Signaling Technologies, Danvers, Mass.), whereas the BEAS-2B cell incubations were halted by the removal of medium and addition of 1× lysis buffer. The resultant samples were frozen in the plates at −80° C. Compound mediated inhibition of STAT6 phosphorylation was measured in the cell lysates using MesoScale Discovery (MSD) technology (Gaithersburg, Md.).

One may read the Ki as the dissociation constant of the complex between target and ligand, obtained from inhibition or displacement. As a reminder, the IC50 is the point on the concentration scale where inhibition reaches its midpoint.

Structures are written as SMILES. Where two headings read alike, the source gives them in different places.

T1 sequence (P23458 875-1153 limits assumed): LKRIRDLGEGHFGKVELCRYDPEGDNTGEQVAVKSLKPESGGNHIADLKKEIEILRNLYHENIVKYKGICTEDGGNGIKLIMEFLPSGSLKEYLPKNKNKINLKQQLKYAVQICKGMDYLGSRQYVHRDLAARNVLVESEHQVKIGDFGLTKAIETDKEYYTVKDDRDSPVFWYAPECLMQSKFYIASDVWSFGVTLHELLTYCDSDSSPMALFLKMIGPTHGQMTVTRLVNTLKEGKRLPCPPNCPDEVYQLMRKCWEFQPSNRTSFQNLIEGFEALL

On to `O=C(Nc1cn(C2CCCCC2=O)nc1-c1cc(Cl)ccc1OC(F)F)c1cnn2cccnc12` (racemic) [Example 1, N-[3-[5-chloro-2-(difluoromethoxy)phenyl]-1-(2-oxocyclohexyl)pyrazol-4-yl] pyrazolo [1,5-a] pyrimidine-3-carboxamide], for which the Ki was 1.1 nM in experiment [1] and 1.4 nM in experiment [2]. For the same molecule, the IC50 in experiment [3] (Homo sapiens, BEAS-2B, […]) was 33 nM.
The matching figures for `CN1CCC(n2cc(NC(=O)c3cnn4cccnc34)c(-c3cc(Cl)c(C#N)cc3OC(F)F)n2)C1=O` (racemic) [Example 22, N-[3-[5-chloro-4-cyano-2-(difluoromethoxy)phenyl]-1-(1-methyl-2-oxo-pyrrolidin-3-yl)pyrazol-4-yl]pyrazolo[1,5-a]pyrimidine-3-carboxamide]: 2.5 nM, 4 nM and 98 nM.
As to `O=C(Nc1cn(C2CCOC2=O)nc1-c1cc(Cl)ccc1OC(F)F)c1cnn2cccnc12` (racemic) [Example 25, N-[3-[5-chloro-2-(difluoromethoxy)phenyl]-1-(2-oxotetrahydrofuran-3-yl)pyrazol-4-yl]pyrazolo[1,5-a]pyrimidine-3-carboxamide; formic acid], the inhibitory constant (Ki) came out at 0.37 nM in experiment [1] and 0.21 nM in experiment [2]. Moreover, the IC50 in experiment [3] (Homo sapiens, BEAS-2B, […]) amounted to 19 nM.
Consider `O=C(Nc1cn(C2CCCC2=O)nc1-c1cc(Cl)ccc1OC(F)F)c1cnn2cccnc12` (racemic) [Example 35, N-[3-[5-chloro-2-(difluoromethoxy)phenyl]-1-(2-oxocyclopentyl)pyrazol-4-yl]pyrazolo[1,5-a]pyrimidine-3-carboxamide], for which the Ki was 0.79 nM in experiment [1] and 0.45 nM in experiment [2]. Moreover, the IC50 in experiment [3] (Homo sapiens, BEAS-2B, […]) is 16 nM.
The corresponding values for `O=C(Nc1cn([C@H]2CCNC2=O)nc1-c1cc(Cl)ccc1OC(F)F)c1cnn2cccnc12` (single isomer, unassigned) [Example 4, N-[3-[5-chloro-2-(difluoromethoxy)phenyl]-1-(2-oxopyrrolidin-3-yl)pyrazol-4-yl]pyrazolo[1,5-a]pyrimidine-3-carboxamide] are 0.78 nM, 0.4 nM and 24 nM.
`O=C(Nc1cn(C2CCNC2=O)nc1-c1cc(Cl)ccc1OC(F)F)c1cnn2cccnc12` (single isomer, unassigned) [Example 5, N-[3-[5-chloro-2-(difluoromethoxy)phenyl]-1-(2-oxopyrrolidin-3-yl)pyrazol-4-yl]pyrazolo[1,5-a]pyrimidine-3-carboxamide]: the Ki in experiment [1] amounted to 1.8 nM; in experiment [2] it was 0.48 nM. In addition, in experiment [3] (Homo sapiens, BEAS-2B, […]), the IC50 amounted to 40 nM.
On to `CSc1ccc(OC(F)F)c(-c2nn(C3CCN(C)C3=O)cc2NC(=O)c2cnn3cccnc23)c1` (single isomer, unassigned) [Example 6, N-[3-[2-(difluoromethoxy)-5-methylsulfanyl-phenyl]-1-(1-methyl-2-oxo-pyrrolidin-3-yl)pyrazol-4-yl]pyrazolo[1,5-a]pyrimidine-3-carboxamide], for which the Ki amounted to 0.18 nM in experiment [1] and 0.24 nM in experiment [2]. In addition, the IC50 in experiment [3] was found to be 11 nM.
As for `CSc1ccc(OC(F)F)c(-c2nn(C3CCN(C)C3=O)cc2NC(=O)c2cnn3cccnc23)c1` (single isomer, unassigned) [Example 7, N-[3-[2-(difluoromethoxy)-5-methylsulfanyl-phenyl]-1-(1-methyl-2-oxo-pyrrolidin-3-yl)pyrazol-4-yl]pyrazolo[1,5-a]pyrimidine-3-carboxamide], the Ki in experiment [1] amounted to 0.84 nM; in experiment [2], 0.31 nM. In experiment [3], the IC50 was found to be 42 nM.
The corresponding values for `CN1CCC(n2cc(NC(=O)c3cnn4cccnc34)c(-c3cc(OC(F)F)ccc3OC(F)F)n2)C1=O` (single isomer, unassigned) [Example 8, N-[3-[2,5-bis(difluoromethoxy)phenyl]-1-(1-methyl-2-oxo-pyrrolidin-3-yl)pyrazol-4-yl]pyrazolo[1,5-a]pyrimidine-3-carboxamide] are 0.3 nM, 0.84 nM and 20 nM.
The matching figures for `CN1CCC(n2cc(NC(=O)c3cnn4cccnc34)c(-c3cc(OC(F)F)ccc3OC(F)F)n2)C1=O` (single isomer, unassigned) [Example 9, N-[3-[2,5-bis(difluoromethoxy)phenyl]-1-(1-methyl-2-oxo-pyrrolidin-3-yl)pyrazol-4-yl]pyrazolo[1,5-a]pyrimidine-3-carboxamide]: 2.1 nM, 1.1 nM and 67 nM.
In the case of `CN1CCC(n2cc(NC(=O)c3cnn4cccnc34)c(-c3cc4c(cc3OC(F)F)NCCO4)n2)C1=O` (single isomer, unassigned) [Example 10, N-[3-[6-(difluoromethoxy)-3,4-dihydro-2H-1,4-benzoxazin-7-yl]-1-(1-methyl-2-oxo-pyrrolidin-3-yl)pyrazol-4-yl]pyrazolo[1,5-a]pyrimidine-3-carboxamide], the Ki is 0.37 nM in experiment [1] and 0.58 nM in experiment [2]. For the same molecule, the IC50 in experiment [3] (Homo sapiens, BEAS-2B, […]) was 190 nM.
In the case of `CN1CCC(n2cc(NC(=O)c3cnn4cccnc34)c(-c3cc4c(cc3OC(F)F)NCCO4)n2)C1=O` (single isomer, unassigned) [Example 11, N-[3-[6-(difluoromethoxy)-3,4-dihydro-2H-1,4-benzoxazin-7-yl]-1-(1-methyl-2-oxo-pyrrolidin-3-yl)pyrazol-4-yl]pyrazolo[1,5-a]pyrimidine-3-carboxamide], the Ki worked out at 1.2 nM in experiment [1] and 0.5 nM in experiment [2]. Further, the IC50 in experiment [3] worked out at 230 nM.
For `CN1CCC(n2cc(NC(=O)c3cnn4cccnc34)c(-c3cc4c(cc3OC(F)F)NCCS4)n2)C1=O` (single isomer, unassigned) [Example 13, N-[3-[6-(difluoromethoxy)-3,4-dihydro-2H-1,4-benzothiazin-7-yl]-1-(1-methyl-2-oxo-pyrrolidin-3-yl)pyrazol-4-yl]pyrazolo[1,5-a]pyrimidine-3-carboxamide], the Ki was determined as 0.88 nM in experiment [1] and 0.43 nM in experiment [2]. Besides, in experiment [3], the IC50 came out at 290 nM.
For `O=C(Nc1cn(C2CCN(CCN3CCOCC3)C2=O)nc1-c1cc(Cl)ccc1OC(F)F)c1cnn2cccnc12` (single isomer, unassigned) [Example 14, N-[3-[5-chloro-2-(difluoromethoxy)phenyl]-1-[1-(2-morpholinoethyl)-2-oxo-pyrrolidin-3-yl]pyrazol-4-yl]pyrazolo[1,5-a] pyrimidine-3-carboxamide], the Ki came to 1.2 nM in experiment [1] and 1.4 nM in experiment [2]. In experiment [3] (Homo sapiens, BEAS-2B, […]), the IC50 turned out to be 79 nM.
The matching figures for `CN1CCN(C(=O)CN2CCC(n3cc(NC(=O)c4cnn5cccnc45)c(-c4cc(Cl)ccc4OC(F)F)n3)C2=O)CC1` (single isomer, unassigned) [Example 16, N-[3-[5-chloro-2-(difluoromethoxy)phenyl]-1-[1-[2-(4-methylpiperazin-1-yl)-2-oxo-ethyl]-2-oxo-pyrrolidin-3-yl]pyrazol-4-yl]pyrazolo[1,5-a]pyrimidine-3-carboxamide]: 2.8 nM, 0.68 nM and 200 nM.
